Source: publication PMC8615155 (Antioxidants, 2021)
Like-named read-outs stand apart in the source and are kept apart here.

Columns and labels:
wild type TrxR1 [1] = target: T1, wild type TrxR1 (Rattus norvegicus, UniProt O89049); assay: TrxR1 DTNB reduction assay
T1 sequence (O89049 1-499): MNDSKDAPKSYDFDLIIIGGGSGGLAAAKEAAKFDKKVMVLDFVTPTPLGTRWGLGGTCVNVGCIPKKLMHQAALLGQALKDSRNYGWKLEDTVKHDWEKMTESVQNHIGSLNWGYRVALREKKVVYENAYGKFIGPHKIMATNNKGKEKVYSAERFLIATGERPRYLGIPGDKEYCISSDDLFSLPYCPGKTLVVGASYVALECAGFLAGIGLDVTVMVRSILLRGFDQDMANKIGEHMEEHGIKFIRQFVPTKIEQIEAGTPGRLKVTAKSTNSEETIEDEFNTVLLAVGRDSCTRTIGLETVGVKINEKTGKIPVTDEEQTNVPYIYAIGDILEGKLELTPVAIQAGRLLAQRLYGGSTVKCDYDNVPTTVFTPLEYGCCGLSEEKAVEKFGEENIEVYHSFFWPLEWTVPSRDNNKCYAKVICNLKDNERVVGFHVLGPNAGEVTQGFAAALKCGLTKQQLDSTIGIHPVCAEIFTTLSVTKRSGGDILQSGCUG
Experimental: (§3) All food colorants were dissolved in DMSO to prepare a stock solution. […] 5,5′-dithiobis-2-nitrobenzoic acid (DTNB), 3-(4,5)-dimethylthiahiazo (-z-y1)-3,5-di-phenytetrazoliumromide (MTT) and ROS probe DCFH-DA were purchased from Sigma-Aldrich (St Louis, MI, USA). A 50 mM Tris-HCl containing 2 mM EDTA (pH 7.5) was used in all protein-based experiments, if not stated otherwise.
(§4) The enzymatic activities of TrxR1 and its various mutants were determined in parallel with DTNB and 9,10-panathrenequinone (9,10 PQ) as substrates [17]. In DTNB reduction assay, the working reaction mixtures contained 10 nM TrxR1, 2.5 mM DTNB and 300 µM NADPH in 50 mM Tris-HCl and 2 mM EDTA, pH 7.5. […] In the 9,10 PQ reduction assay, the working reaction mixtures contained 30 nM TrxR1, 30 µM 9,10 PQ and 200 µM NADPH, followed by NADPH oxidation at 340 nm for 20 min at room temperature, according to the linear region of the decrease curves (assuming ƐNADPH, 340 nm = 6200 M^−1 cm^−1).

wild type TrxR1 [2] = target: T1, wild type TrxR1
Experimental: as §3, §4

TrxR1 [3] = target: T2, TrxR1 (Rattus norvegicus, UniProt O89049); assay: NADPH oxidase activity of TrxR1 (juglone reduction); type: biochemical; details: 500 µM, 30 min in dark, juglone as substrate
T2 sequence (O89049 1-499): T1 sequence (O89049 1-499)
Experimental: NADPH oxidase activity of TrxR1 was measured by juglone reduction method. The final reaction mixture consisted of 30 nM TrxR1, 30 µM juglone (in DMSO) and 200 µM NADPH.

HCT116 cells = assay: MTT cell viability HCT116; type: cell-based, Human; details: for IC50: read-out: IC50 values on cancer cell lines
Experimental: (§1) Human HeLa, A549, HepG2, SH-SY5Y, MCF7 and AGS cells were cultured in DMEM containing 10% FBS, respectively. HCT116 cells were cultured in McCoy’s 5A medium (Procell, Wuhan, China) containing 10% FBS. The cells were cultured in medium containing 100 IU/mL penicillin, 100 µg/mL streptomycin (1% antibiotics) and 25 nM selenite at 37 °C in a humidified incubator with 5% CO2 (Thermo Fisher Scientific, Waltham, MA, USA).
(§2) MTT assay was used to detect cell viability. In brief, cells were seeded in 96-well plates with 5000 cells per well and allowed to stick overnight. […] After treatment, the cell medium was carefully removed from the cultured cells and added with 100 µL fresh FBS-free medium containing 0.5 mg/mL MTT. The medium was incubated in an incubator for 4 h. Then, the medium was removed, and the formazan crystals formed were dissolved in 100 µL DMSO. The absorbance was measured at 570 nm, and 630 nm was set as the reference. The experiments were repeated four times.

HepG2 cells = assay: MTT cell viability HepG2; type: cell-based, Human; details: read-out: IC50 values on cancer cell lines
Experimental: as §1, §2

SH-SY5Y cells = assay: MTT cell viability SH-SY5Y; type: cell-based, Human; details: 48 h, read-out: IC50 values on cancer cell lines
Experimental: as §1, §2

AGS cells = assay: MTT cell viability AGS; type: cell-based, Human
Experimental: as §1, §2

A549 cells = assay: MTT cell viability A549; type: cell-based, Human; details: read-out: IC50 values on cancer cell lines
Experimental: as §1, §2

[4] = target: T3, cellular TrxR in HeLa cells (Homo sapiens, UniProt Q16881); assay: Cellular TrxR activity, end-point Trx-coupled insulin assay; type: cell-based; details: HeLa cells vs untreated controls
T3 construct: endogenous in cells; host or cells: HeLa
T3 sequence (Q16881 1-499 isoform Q16881-5): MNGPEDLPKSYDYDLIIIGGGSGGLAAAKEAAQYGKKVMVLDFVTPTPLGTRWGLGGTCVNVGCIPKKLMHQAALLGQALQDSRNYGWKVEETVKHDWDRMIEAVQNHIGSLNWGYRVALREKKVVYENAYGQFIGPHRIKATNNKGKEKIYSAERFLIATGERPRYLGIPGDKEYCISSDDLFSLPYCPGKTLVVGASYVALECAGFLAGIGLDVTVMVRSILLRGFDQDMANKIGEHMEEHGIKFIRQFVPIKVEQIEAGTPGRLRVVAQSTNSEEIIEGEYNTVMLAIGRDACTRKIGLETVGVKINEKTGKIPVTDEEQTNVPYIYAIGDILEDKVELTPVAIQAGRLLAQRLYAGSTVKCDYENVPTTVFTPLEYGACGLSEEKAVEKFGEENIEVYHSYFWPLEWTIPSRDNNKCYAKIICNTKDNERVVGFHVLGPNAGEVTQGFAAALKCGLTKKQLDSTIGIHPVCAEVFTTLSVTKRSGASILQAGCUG
Experimental: The cells were then collected and washed twice with ice-cold PBS. The total cell proteins were extracted with the RIPA buffer on ice for 30 min. The TrxR activities in the cell lysates were measured by the end-point Trx-coupled insulin assay and the protein concentration was determined by BCA protein assay kit (Sangon, Shanghai, China), using bovine serum albumin (BSA) as protein standard.

MCF7 cells = assay: MTT cell viability MCF7; type: cell-based, Human; details: read-out: IC50 values on cancer cell lines
Experimental: as §1, §2

HeLa cells [5] = assay: ROS generation with DCFH-DA; type: cell-based, Human; details: 12 h, up to 50 µM
Experimental: After removing the medium, 10 µM DCFH-DA was added and incubated at 37 °C in darkness for 30 min. The cells were then observed and photographed using a Leica inverted fluorescence microscopy (Leica, Germany).

HeLa cells [6] = assay: MTT cell viability HeLa; type: cell-based, Human; details: read-out: IC50 values on cancer cell lines
Experimental: as §1, §2

TrxR1 [7] = test system: TrxR1; parameters: method as in PMID 21262347; details: cited from earlier work

With CC1=C[C@H](O)CC(C)(C)[C@H]1/C=C/C(C)=C/C=C/C(C)=C/C=C/C=C(C)/C=C/C=C(C)/C=C/C1=C(C)C[C@@H](O)CC1(C)C [lutein] the IC50 (wild type TrxR1 [1]) was 306 µM, the “Time dependence of TrxR1 inhibition” value (wild type TrxR1 [2]) was “time-dependent manner” and the “Inhibition of NADPH oxidation activity of TrxR1” value (TrxR1 [3]) was “no inhibition”.
With CC(=O)OC[C@H]1O[C@@H]([S-])[C@H](OC(C)=O)[C@@H](OC(C)=O)[C@@H]1OC(C)=O.CCP(CC)CC.[Au+] [auranofin, reference compound] the “Effect of pre-treatment on sensitivity of HCT116 cells to chlorophyllin” value (HCT116 cells; auranofin 2.5 h pre-treatment, then chlorophyllin) was “increasing the sensitivity”.
“Sodium copper chlorophyll [chlorophyllin]” showed an IC50 (HepG2 cells; HepG2, 24 h) of 36.8 ± 11.2 µM, an IC50 (HepG2 cells; HepG2, 48 h) of 10.2 ± 3 µM and an IC50 (SH-SY5Y cells) of 31.7 ± 6.7 µM. For the same compound, the IC50 (AGS cells; 48 h, read-out: IC50 values on cancer cell lines) was 49.6 ± 24.7 µM, the IC50 (HCT116 cells; HCT116, 24 h) was 43.5 ± 2.6 µM and the IC50 (HCT116 cells; HCT116, 48 h) was 20.2 ± 0.8 µM. The IC50 (A549 cells; A549, 24 h) was 40.7 ± 3.9 µM, the IC50 (A549 cells; A549, 48 h) was 10.3 ± 1.4 µM and the “Inhibition of cellular TrxR1 activity” value [4] was “remarkable inhibition”. For the same compound, the IC50 (MCF7 cells; MCF7, 24 h) was 30.1 ± 7.1 µM, the IC50 (MCF7 cells; MCF7, 48 h) was 6.9 ± 1.1 µM and the “Fluorescent signals of ROS probe DCFH-DA” value (HeLa cells [5]) was “much higher”. It also gave an IC50 (HeLa cells [6]; 24 h) of 47.9 ± 13.5 µM and an IC50 (HeLa cells [6]; 48 h) of 10.4 ± 4.3 µM.
With CC(=O)N[C@@H](CS)C(=O)O [NAC, N-acetyl-L-cysteine, reference compound] the “Effect of co-treatment on chlorophyllin cytotoxicity” value (AGS cells; 100 µM or 500 µM NAC, 24 h co-treatment) was “protect cell from chlorophyllin” and the “Effect of co-treatment on chlorophyllin cytotoxicity” value (HCT116 cells; HCT116, 100 µM or 500 µM NAC, 24 h co-treatment) was “protect cell from chlorophyllin”.
For C=CC1=C(C)c2cc3[nH]c(cc4nc(cc5[nH]c(cc1n2)c(C)c5CCC(=O)O)C(CCC(=O)O)=C4C)c(C)c3C=C [PpIX], the “Kinact in TrxR1 mediated Trx-coupled insulin reduction” value (TrxR1 [7]) is listed as 5 M⁻¹ s⁻¹ and the Ki (TrxR1 [7]; read-out: apparent Ki on TrxR1's Trx reduction) is listed as 2.7 µM.
For hemin, the “Kinact in TrxR1 mediated Trx-coupled insulin reduction” value (TrxR1 [7]) is listed as 4.33 M⁻¹ s⁻¹.
